Experimental data reported in US11130769B2 (Prelude Therapeutics Incorporated, priority 2018, dated 2021).
Read-outs that look alike come from different tables or passages of the source.

What was measured:
[1] = target: MCL-1 (Homo sapiens (Human), UniProt Q07820); assay: Cell free Mcl-1:Bim affinity assay (fluorescence polarization competition); format: binding; settings: 15 nM MCL-1, 5 nM FITC-Bim, 1 hour at room temperature, read-out: BIM_Ki
How it was run: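 Compounds competed with FITC-labelled Bim peptide (5 nM) for MCL-1 (15 nM) in HEPES/NaCl buffer with 1% DMSO, 1 h at room temperature. Fluorescence polarization (535 nm emission) gave % inhibition versus DMSO and positive controls; IC50 from 10-point curves, converted to Ki by the Nikolovska-Coleska equation.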

[2] = system: H929 cells; assay: Cell viability assay (H929 10 FBS); format: cell-based; settings: Homo sapiens, NCI-H929, 24 hours, read-out: H929_10FBS IC50
How it was run: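 H929 cells, 4000/well, in RPMI 1640 with 10% FBS, sodium pyruvate, HEPES and glucose were exposed to compound 24 h at 37 °C. Viability read as luminescence after 30-60 min at RT with CellTiter-Glo or ATPlite 1 Step.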

Sequence of MCL-1 (Q07820 whole entry): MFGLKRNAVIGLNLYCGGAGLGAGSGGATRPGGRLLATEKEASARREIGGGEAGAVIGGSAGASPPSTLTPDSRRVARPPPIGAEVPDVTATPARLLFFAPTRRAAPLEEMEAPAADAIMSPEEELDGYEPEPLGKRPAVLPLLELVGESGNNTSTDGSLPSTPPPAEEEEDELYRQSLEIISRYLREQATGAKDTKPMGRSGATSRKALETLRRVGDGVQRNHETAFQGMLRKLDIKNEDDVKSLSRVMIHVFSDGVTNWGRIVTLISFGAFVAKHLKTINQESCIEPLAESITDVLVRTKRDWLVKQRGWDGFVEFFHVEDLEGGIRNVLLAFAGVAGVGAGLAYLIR

Row | Ki ([1]; class symbols) | IC50 [2] | Ki ([1]; numeric values) | Compound
1 | < 1 nM | < 500 nM | – | CO[C@@H]1CCN(C(=O)O[C@H]2/C=C/COC(C)(C)C(=O)NS(=O)(=O)c3ccc4c(c3)N(C[C@@H]3CC[C@H]32)C[C@@]2(CCCc3cc(Cl)ccc32)CO4)C1 [Example 58, [(3R,6R,7S,8E,22S)-6′-Chloro-12,12-dimethyl-13,15,15-trioxo-spiro[11,20-dioxa-15-thia-1,14-diazatetracyclo[14.7.2.03,6.019,24]pentacosa-8,16,18,24-tetraene-22,1′-tetralin]-7-yl] (3R)-3-methoxypyrrolidine-1-carboxylate]
2 | < 1 nM | < 1000 nM | – | CN(C)CCO[C@@H]1/C=C/COC(C)(C)C(=O)NS(=O)(=O)c2ccc3c(c2)N(C[C@@H]2CC[C@H]21)C[C@@]1(CCCc2cc(Cl)ccc21)CO3 [Example 273, (3R,6R,7R,8E,22S)-6′-Chloro-7-[2-(dimethylamino)ethoxy]-12,12-dimethyl-15,15-dioxo-spiro[11,20-dioxa-15-thia-1,14-diazatetracyclo[14.7.2.03,6.019,24]pentacosa-8,16,18,24-tetraene-22,1′-tetralin]-13-one]
3 | 1 to 100 nM | < 1000 nM | – | CO[C@@H]1/C=C/CN(C)C2(CCC2)C(=O)NS(=O)(=O)c2ccc3c(c2)N(C[C@@H]2CC[C@H]21)C[C@@]1(CCCc2cc(Cl)ccc21)CO3 [Example 120, (3R,6R,7R,8E,22S)-6′-Chloro-7-methoxy-11-methyl-12,12-(1,3-propylene)-15,15-dioxo-spiro[20-oxa-15-thia-1,11,14-triazatetracyclo[14.7.2.03,6.019,24]pentacosa[8,16(25),17,19(24)]tetraene-22,1′-tetralin]-13-one]
4 | < 1 nM | < 500 nM | – | CN(C)C(=O)O[C@H]1/C=C/CN(C)C(C)(C)C(=O)NS(=O)(=O)c2ccc3c(c2)N(C[C@@H]2CC[C@H]21)C[C@@]1(CCCc2cc(Cl)ccc21)CO3 [Example 44, [(3R,6R,7S,8E,22S)-6′-chloro-11,12,12-trimethyl-13,15,15-trioxo-spiro[20-oxa-15-thia-1,11,14-triazatetracyclo[14.7.2.03,6.019,24]pentacosa-8,16,18,24-tetraene-22,1′-tetralin]-7-yl] N,N-dimethylcarbamate]
5 | – | > 1000 nM | 1.4 nM | O=C1Cc2cccc(c2)OC[C@@H]2CC[C@H]2CN2C[C@@]3(CCCc4cc(Cl)ccc43)COc3ccc(cc32)S(=O)(=O)N1 [Example 18, (3R,6R,24S)-6′-Chloro-17,17-dioxo-spiro[8,22-dioxa-17λ^6-thia-1,16-diazapentacyclo[16.7.2.1^9,13.0^3,6.0^21,26]octacosa-9(28),10,12,18(27),19,21(26)-hexaene-24,1′-tetralin]-15-one]
6 | < 1 nM | < 500 nM | – | CN1CCN(CCO[C@H]2/C=C/COC(C)(C)C(=O)NS(=O)(=O)c3ccc4c(c3)N(C[C@@H]3CC[C@H]32)C[C@@]2(CCCc3cc(Cl)ccc32)CO4)CC1 [Example 259, (3R,6R,7S,8E,22S)-6′-Chloro-12,12-dimethyl-7-[2-(4-methylpiperazin-1-yl)ethoxy]-15,15-dioxo-spiro[11,20-dioxa-15-thia-1,14-diazatetracyclo[14.7.2.03,6.019,24]pentacosa-8,16,18,24-tetraene-22,1′-tetralin]-13-one]
7 | < 1 nM | < 1000 nM | – | CN1C/C=C/[C@H](OCCN2CC[C@@H](F)C2)[C@@H]2CC[C@H]2CN2C[C@@]3(CCCc4cc(Cl)ccc43)COc3ccc(cc32)S(=O)(=O)NC(=O)C1(C)C [Example 276, (3R,6R,7S,8E,22S)-6′-Chloro-7-[2-[(3R)-3-fluoropyrrolidin-1-yl]ethoxy]-11,12,12-trimethyl-15,15-dioxo-spiro[20-oxa-15-thia-1,11,14-triazatetracyclo[14.7.2.03,6.019,24]pentacosa-8,16,18,24-tetraene-22,1′-tetralin]-13-one]
8 | < 1 nM | < 500 nM | – | CC1(C)OC/C=C/[C@H](OCC(=O)N2CC(F)(F)C2)[C@@H]2CC[C@H]2CN2C[C@@]3(CCCc4cc(Cl)ccc43)COc3ccc(cc32)S(=O)(=O)NC1=O [Example 278, (3R,6R,7S,8E,22S)-6′-Chloro-7-[2-(3,3-difluoroazetidin-1-yl)-2-oxo-ethoxy]-12,12-dimethyl-15,15-dioxo-spiro[11,20-dioxa-15-thia-1,14-diazatetracyclo[14.7.2.03,6.019,24]pentacosa-8,16,18,24-tetraene-22,1′-tetralin]-13-one]
9 | < 1 nM | < 500 nM | – | COC1CN(CCO[C@H]2/C=C/COC(C)(C)C(=O)NS(=O)(=O)c3ccc4c(c3)N(C[C@@H]3CC[C@H]32)C[C@@]2(CCCc3cc(Cl)ccc32)CO4)C1 [Example 261, (3R,6R,7S,8E,22S)-6′-Chloro-7-[2-(3-methoxyazetidin-1-yl)ethoxy]-12,12-dimethyl-15,15-dioxo-spiro[11,20-dioxa-15-thia-1,14-diazatetracyclo[14.7.2.03,6.019,24]pentacosa-8,16,18,24-tetraene-22,1′-tetralin]-13-one]
10 | < 1 nM | < 500 nM | – | CC1(C)OC/C=C/[C@H](OC(=O)N2CCC(F)(F)C2)[C@@H]2CC[C@H]2CN2C[C@@]3(CCCc4cc(Cl)ccc43)COc3ccc(cc32)S(=O)(=O)NC1=O [Example 166, [(3R,6R,7S,8E,22S)-6′-Chloro-12,12-dimethyl-13,15,15-trioxo-spiro[11,20-dioxa-15-thia-1,14-diazatetracyclo[14.7.2.03,6.019,24]pentacosa-8,16,18,24-tetraene-22,1′-tetralin]-7-yl] 3,3-difluoropyrrolidine-1-carboxylate]
11 | 1 to 100 nM | > 1000 nM | – | CO[C@H]1/C=C/C[C@H](C)[C@@H](C)C(=O)NS(=O)(=O)c2ccc3c(c2)N(C[C@@H]2CC[C@H]21)C[C@@]1(CCCc2cc(Cl)ccc21)CO3 [Example 79, (3R,6R,7S,8E,11S,12R,22S)-6′-Chloro-7-methoxy-11,12-dimethyl-15,15-dioxo-spiro[20-oxa-15-thia-1,14-diazatetracyclo[14.7.2.03,6.019,24]pentacosa-8,16,18,24-tetraene-22,1′-tetralin]-13-one]
12 | < 1 nM | < 500 nM | – | CC1(C)OC/C=C/[C@H](OC(=O)NCC2CC2)[C@@H]2CC[C@H]2CN2C[C@@]3(CCCc4cc(Cl)ccc43)COc3ccc(cc32)S(=O)(=O)NC1=O [Example 183, [(3R,6R,7S,8E,22S)-6′-Chloro-12,12-dimethyl-13,15,15-trioxo-spiro[11,20-dioxa-15-thia-1,14-diazatetracyclo[14.7.2.03,6.019,24]pentacosa-8,16,18,24-tetraene-22,1′-tetralin]-7-yl] N-(cyclopropylmethyl)carbamate]
13 | – | > 1000 nM | 7.4 nM | Cc1ccc(CC(=O)NS(=O)(=O)c2ccc3c(c2)N(CC2CCC2)C[C@@]2(CCCc4cc(Cl)ccc42)CO3)cn1 [Example 17, 2-(6-Methyl-3-pyridyl)-N-[(3S)-6′-chloro-5-(cyclobutylmethyl)spiro[2,4-dihydro-1,5-benzoxazepine-3,1′-tetralin]-7-yl]sulfonyl-acetamide]
14 | < 1 nM | < 1000 nM | – | COC[C@H]1C(=O)NS(=O)(=O)c2ccc3c(c2)N(C[C@@H]2CC[C@H]2[C@H](O)/C=C/C[C@@H]1C)C[C@@]1(CCCc2cc(Cl)ccc21)CO3 [Example 88, (3R,6R,7R,8E,11S,12S,22S)-6′-Chloro-7-hydroxy-12-(methoxymethyl)-11-methyl-15,15-dioxo-spiro[20-oxa-15-thia-1,14-diazatetracyclo[14.7.2.03,6.019,24]pentacosa-8,16,18,24-tetraene-22,1′-tetralin]-13-one]
15 | 1 to 100 nM | < 500 nM | – | O=C1Cn2ccc(n2)CC(=O)N2CCC(C2)CN2C[C@@]3(CCCc4cc(Cl)ccc43)COc3ccc(cc32)S(=O)(=O)N1 (stereo partly drawn) [Example 296, (23S)-6′-Chloro-16,16-dioxo-spiro[21-oxa-16-thia-1,6,12,15,27-pentazapentacyclo[15.7.2.13,6.19,12.020,25]octacosa-9(27),10,17,19,25-pentaene-23,1′-tetralin]-7,14-dione]
16 | < 1 nM | < 500 nM | – | COC1CN(C(=O)CO[C@H]2/C=C/COC(C)(C)C(=O)NS(=O)(=O)c3ccc4c(c3)N(C[C@@H]3CC[C@H]32)C[C@@]2(CCCc3cc(Cl)ccc32)CO4)C1 [Example 280, (3R,6R,7S,8E,22S)-6′-Chloro-7-[2-(3-methoxyazetidin-1-yl)-2-oxo-ethoxy]-12,12-dimethyl-15,15-dioxo-spiro[11,20-dioxa-15-thia-1,14-diazatetracyclo[14.7.2.03,6.019,24]pentacosa-8,16,18,24-tetraene-22,1′-tetralin]-13-one]
17 | < 1 nM | < 500 nM | – | CC1(C)OC/C=C/[C@H](OCC(=O)N2CC(F)C2)[C@@H]2CC[C@H]2CN2C[C@@]3(CCCc4cc(Cl)ccc43)COc3ccc(cc32)S(=O)(=O)NC1=O [Example 281, (3R,6R,7S,8E,22S)-6′-Chloro-7-[2-(3-fluoroazetidin-1-yl)-2-oxo-ethoxy]-12,12-dimethyl-15,15-dioxo-spiro[11,20-dioxa-15-thia-1,14-diazatetracyclo[14.7.2.03,6.019,24]pentacosa-8,16,18,24-tetraene-22,1′-tetralin]-13-one]
18 | – | > 1000 nM | 1430 nM | C=CCCCC(=O)NS(=O)(=O)c1ccc2c(c1)N(Cc1cnn(CC=C)c1)CC1(CCCc3cc(Cl)ccc31)CO2 (stereo not drawn) [Example 10, N-[5-[(1-Allylpyrazol-4-yl)methyl]-6′-chloro-spiro[2,4-dihydro-1,5-benzoxazepine-3,1′-tetralin]-7-yl]sulfonylhex-5-enamide]
